{"source": "patent US20150125904A1", "about": "“PROBE INCORPORATION MEDIATED BY ENZYMES” (Massachusetts Institute of Technology, priority 2012, published 2015)", "key": {"[1]": {"conditions": "cited from earlier work"}, "Wild-type LplA": {"target": "T1, Wild-type LplA (Escherichia coli, UniProt P32099)", "T1 construct": "His6 (N); made in house; host or cells: E. coli", "T1 sequence (P32099 2-338)": "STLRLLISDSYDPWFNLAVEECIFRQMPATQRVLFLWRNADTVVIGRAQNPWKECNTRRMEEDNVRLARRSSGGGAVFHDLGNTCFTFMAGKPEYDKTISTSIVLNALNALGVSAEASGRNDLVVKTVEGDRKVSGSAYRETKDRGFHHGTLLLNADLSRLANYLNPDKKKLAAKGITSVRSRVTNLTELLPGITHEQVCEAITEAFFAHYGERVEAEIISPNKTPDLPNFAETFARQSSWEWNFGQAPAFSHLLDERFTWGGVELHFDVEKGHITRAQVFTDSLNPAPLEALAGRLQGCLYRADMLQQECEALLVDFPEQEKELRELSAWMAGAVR", "conditions": "cited from earlier work"}, "LAP-CFP-TM on HEK cells [2]": {"tested_on": "LAP-CFP-TM on HEK cells", "assay": "Enzyme-catalyzed azide ligation efficiencies at the cell surface (anti-lipoic acid antibody staining)", "type": "cell-based, human", "conditions": "for lipoylation of remaining LAP sites after azide labeling, relative to condition 3 (100%): 20 min azide ligation, picolyl azide 8 with W37VLplA, 8-azidooctanoic acid with wild-type LplA; for estimated extent of azide ligation: indirectly estimated from lipoylation extent, 20 min", "protocol": "A: Labeling protocol. HEK cells expressing LAP-CFP-TM were labeled with picolyl azide 8 and W37VLplA, or 8-azidooctanoic acid and wild-type LplA, using the same exact conditions as in FIGS. 6 and 9. Thereafter, cells were washed and any remaining unmodified LAP sites were labeled under forcing conditions with lipoic acid (200 μM lipoic acid, 1 mM ATP, and 20 μM wild-type LplA for 20 min). Anti-lipoic acid antibody staining was used to quantify the extent of lipoylation, and CuAAC was performed thereafter with 20 μM Alexa Fluor® 647-alkyne, 100 μM CuSO4, and 500 μM BTTAA ligand for 5 min. Cells were imaged live. B: Representative confocal images. Results obtained using picolyl azide 8 (condition 2) are shown below results with 8-azidooctanoic acid (condition 1). A negative control with neither azide added during the LplA step is shown in the bottom row (condition 3). The Alexa Fluor® 647 channel reflects CuAAC labeling. The Alexa Fluor® 568 channel reflects anti-lipoic acid antibody labeling. The CFP channel showing LAP-CFP-TM expression is overlaid on DIC. Scale bars, 10 μm. C: Quantitation of data in (B). The mean intensities in all three channels were collected for >90 single cells for each condition. To compare the extents of lipoylation, the Alexa Fluor® 568/CFP ratios were calculated (to normalize for variations in LAP expression level), averaged, and plotted on the graph. CuAAC labeling extent was quantified in a similar way. Error bars, ±s.e.m. Due to the forcing conditions of the LplA-catalyzed lipoylation, we set condition 3 to represent 100% lipoylation extent for the cell surface LAP-CFP-TM population. By comparison, lipoylation after picolyl azide 8 labeling proceeds to 19% that of condition. Lipoylation after 8-azidooctanoic acid labeling proceeds to 37% that of condition 3. Based on these, we can indirectly estimate that picolyl azide 8 ligation proceeds to 81%, and 8-azidooctanoic acid ligation proceeds to 63%, under these conditions.\nLive HEK cells were incubated with rabbit anti-lipoic acid antibody (Calbiochem) in cell growth medium at 1:300 dilution for 10 min at room temperature, followed by two washes with cell growth medium. Thereafter, cells were incubated with anti-rabbit secondary antibody conjugated to Alexa Fluor® 568 (Life Technologies) in cell growth medium at 1:300 dilution for 10 min at room temperature, followed by two washes with cell growth medium."}, "[3]": {"assay": "Kinetic analysis of the CuAAC reaction (fluorogenic click with 7-ethynyl coumarin)", "conditions": "for improvement in initial CuAAC rate over carbocyclic analog: 10 μM CuSO4, no accelerating ligand, 2 vs 1, 4 vs 3; for effect of ring substituent on CuAAC reaction: 10 μM CuSO4, no ligand", "protocol": "FIG. 4 is a graph illustrating in vitro analysis of CuAAC rates with chelating azides. A: A fluorogenic click reaction with 7-ethynyl coumarin was used to quantify CuAAC reaction progress. Zhou et al., JACS, 126:8862-8863 (2004). B: Various chelating azide structures tested and their CuAAC reaction yields after 10 min and 30 min. Reactions were run with 10 μM CuSO4 and no ligand (THPTA or BTTAA). C: Kinetic comparison of chelating azide 4 and its non-chelating benzyl counterpart 3 at different copper concentrations. CuAAC product was quantified using the assay in A), at 100, 40, and 10 μM CuSO4, both in the absence and presence of Cu(I) ligand THPTA. Measurements were performed in triplicate. Error bars, ±s.d.\nFluorescence was converted to coumarin triazole product quantity by comparison to standard curves, individually generated for each azide-coumarin alkyne adduct. Entries with less than 1% reaction yield (azides 1 and 3) are omitted from the plot. Measurements were performed in triplicate. Error bars, ±s.d.\nGeneral reaction conditions: 20 μM azide, 40 μM 7-ethynyl coumarin (A), and 4 mM sodium ascorbate in 100 mM sodium phosphate buffer at pH 7.4 at 25±1° C. 100 μM Tempol was added to each reaction to minimize Cu-dependent fluorescence quenching of 7-ethynyl coumarin and coumarin-triazoles. FIG. 4A.\nReactions were initiated by the addition of CuSO4: 10 μM for the azide compounds shown in FIG. 4B, and 10, 40, or 100 μM for the compounds shown in FIG. 4C. In FIG. 4C when THPTA was included, the THPTA:copper ratio was fixed at a 4:1 molar ratio. Coumarin fluorescence was recorded on a Tecan SAFIRE microplate reader at 2-min intervals for 30 min with excitation at 320 nm and emission detection at 430 nm. For each azide, the turn-on fluorescence of coumarin was correlated to % conversion to product using a calibration curve made from a mixture of known concentrations of 7-ethynyl coumarin and coumarin-triazole adduct of each azide, as follows:\nCoumarin-triazole standards for azide 1, 2, 5, 6, and 7 (FIG. 4B) were generated from reacting 120 μM of each azide with 100 μM 7-ethynyl coumarin until 7-ethynyl coumarin was fully converted to the triazole adduct, using 100 μM CuSO4, 400 μM THPTA, and 4 mM sodium ascorbate. […] Such reaction mixture, now representing coumarin-triazole of a known concentration (100 μM), was then mixed with 7-ethynyl coumarin in defined ratios in the presence of 20-fold molar excess of EDTA relative to CuSO4, (which was carried over from the triazole generation reaction), to generate the calibration curve above.\nCoumarin-triazole standards for azide 3 and 4 were generated from purified coumarin-triazole adducts for each azide (synthetic methods described below). Calibration curves were generated for azide 3 and 4 using coumarin-triazoles from crude reaction mixtures as described above, and found them to perform similarly to calibration curves generated from purified triazoles. FIG. 4C."}, "LAP-CFP-TM on HEK cells [4]": {"tested_on": "LAP-CFP-TM on HEK cells", "assay": "Two-step cell surface protein labeling, PRIME followed by CuAAC (Alexa Fluor 647/CFP ratio)", "type": "cell-based, human", "protocol": "FIG. 6 is a diagram showing comparison of protein labeling signals on live cells using PRIME and CuAAC, with and without chelating azides. Two-step site-specific protein labeling was performed as in FIG. 3B above and 9 below, on HEK cells expressing LAP-tagged cyan fluorescent protein fused to the transmembrane domain of the PDGF receptor (LAP-CFP-TM). In the first step, either W37VLplA was used to target picolyl azide 8 to LAP, or wild-type LplA was used to ligate non-chelating 8-azidooctanoic acid. The efficiencies of these two ligation reactions are compared in FIG. S5. In the second step, CuAAC was performed for 5 min with Alexa Fluor® 647-alkyne and CuSO4 (10, 40, or 100 μM) in combination with either THPTA or BTTAA ligand (provided in 5-fold excess relative to the CuSO4 concentration). To quantify labeling signals, the mean Alexa Fluor® 647 and mean CFP intensities were calculated for >90 cells for each condition, ratioed to normalize for variations in LAP-CFP-TM expression level, and averaged. Error bars, ±s.e.m.\nA: Two-step site-specific cell surface protein labeling protocol. In the first step, HEK cells expressing LAP-CFP-TM (TM is the transmembrane helix of the PDGF receptor) were labeled with picolyl azide 8 using W37VLplA and ATP added to the cell medium for 20 min. Alternatively, LAP-CFP-TM was labeled with non-chelating azide 8-azidooctanoic acid using wild-type LplA. In the second step, CuAAC was performed for 5 min using Alexa Fluor® 647-alkyne, various concentrations of CuSO4 (10, 40, or 100 μM), and either THPTA or BTTAA ligand added in 4-fold excess of the CuSO4. B: Representative confocal cell images for twelve different conditions (three CuSO4 concentrations, either THPTA or BTTAA ligand, and either alkyl azide or picolyl azide). For each condition, the Alexa Fluor® 647 labeling channel and the CFP channel, overlaid on DIC, are shown. Insets show the Alexa Fluor® 647 channel at higher contrast. Scale bars, 10 μm.\nLplA labeling was performed with picolyl azide 8,8-azidooctanoic acid, or 10-undecynoic acid. CuAAC was performed with either alkyne, picolyl azide, or alkyl azide conjugates to Alexa Fluor® 647. A: Representative images showing labeling of LAP-CFP-TM on the surface of live HEK cells under four different conditions. CFP channels are shown, along with Alexa Fluor® 647 labeling channels normalized to the same intensity range (bottom) or not normalized (middle). LplA labeling protocol for all four conditions: 200 μM azide or alkyne substrate, 10 μM LplA (wild-type or mutant), 1 mM ATP, and 5 mM Mg(OAc)2 in cell culture medium for 20 min. […] B: Quantitation of data in (A). Average Alexa Fluor® 647/CFP intensity ratios were calculated for ˜50 single cells from each condition. […]"}, "[5]": {"conditions": "conjugation to LAP, previously reported"}}, "note": "Read-outs that look alike come from different tables or passages of the source.", "data": [{"compound": "6,8-difluoro-7-hydroxycoumarin [Pacific Blue]", "values": [{"measurement": "pKa of 7-OH substituent", "setting": "[1]", "value": 3.7}]}, {"compound": "O=C(O)CCCC[C@@H]1CCSS1", "note": "(racemic) [lipoic acid]", "values": [{"measurement": "kcat", "setting": "Wild-type LplA; lipoic acid ligation by wild-type LplA", "value": 0.22, "unit": "s⁻¹"}]}, {"compound": "[N-]=[N+]=NCCCCCCCC(=O)O", "note": "[8-azidooctanoic acid, reference compound]", "values": [{"measurement": "Km", "setting": "Wild-type LplA; [5]", "value": 127, "unit": "µM"}, {"measurement": "kcat", "setting": "Wild-type LplA; [5]", "value": 0.111, "unit": "s⁻¹"}, {"measurement": "lipoylation of remaining LAP sites after azide labeling, relative to condition 3 (100%)", "setting": "LAP-CFP-TM on HEK cells [2]", "value": 37, "unit": "%"}, {"measurement": "estimated extent of azide ligation", "setting": "LAP-CFP-TM on HEK cells [2]", "value": 63, "unit": "%"}]}, {"compound": "[N-]=[N+]=NCc1ccccn1", "note": "[Azide 2, 2-azidomethylpyridine]", "values": [{"measurement": "improvement in initial CuAAC rate over carbocyclic analog", "setting": "[3]", "value": 43, "unit": "fold"}]}, {"compound": "[N-]=[N+]=NCc1ccc(C(=O)O)cc1", "note": "[Azide 3, 4-azidomethylbenzoic acid, reference compound]", "values": [{"measurement": "time for CuAAC reaction to completion", "setting": "[3]; THPTA added, 100 and 40 uM Cu", "value": "≤ 30", "unit": "min"}]}, {"compound": "[N-]=[N+]=NCc1ccc(C(=O)O)cn1", "note": "[Azide 4, 6-Azidomethylnicotinic acid]", "values": [{"measurement": "improvement in initial CuAAC rate over carbocyclic analog", "setting": "[3]", "value": 14, "unit": "fold"}, {"measurement": "time for CuAAC reaction to completion", "setting": "[3]; THPTA absent, 100 and 40 uM Cu", "value": "≤ 30", "unit": "min"}, {"measurement": "time for CuAAC reaction to completion", "setting": "[3]; THPTA added, all three copper concentrations (10, 40, 100 μM)", "value": "≤ 5", "unit": "min"}]}, {"compound": "COc1ccnc(CN=[N+]=[N-])c1", "note": "[Azide 6, 2-Azidomethyl-4-methoxypyridine]", "values": [{"measurement": "effect of ring substituent on CuAAC reaction", "setting": "[3]", "value": "further accelerated the CuAAC reaction"}]}, {"compound": "[N-]=[N+]=NCc1cc(Cl)ccn1", "note": "[Azide 7, 2-Azidomethyl-4-chloropyridine]", "values": [{"measurement": "effect of ring substituent on CuAAC reaction", "setting": "[3]", "value": "dampened the accelerating effect"}]}, {"compound": "[N-]=[N+]=NCc1ccc(C(=O)NCCCCC(=O)O)cn1", "note": "[Picolyl azide 8, 5-(6-(Azidomethyl)nicotinamido)pentanoic acid]", "values": [{"measurement": "signal of picolyl azide ligation followed by fluorophore-alkyne relative to alkyne ligation followed by fluorophore-picolyl azide", "setting": "LAP-CFP-TM on HEK cells [4]; 100 μM CuSO4, 500 μM THPTA, 5 min (FIG. 13)", "value": "~2.4", "unit": "fold"}, {"measurement": "boost of cell signal on replacement of 8-azidooctanoic acid, corrected for enzymatic ligation efficiencies", "setting": "LAP-CFP-TM on HEK cells [4]; 10, 40, 100 μM Cu, THPTA or BTTAA, corrected", "value": "≤ 25", "unit": "fold"}, {"measurement": "signal relative to alkyl azide at 100 μM Cu (+THPTA), corrected value", "setting": "LAP-CFP-TM on HEK cells [4]; picolyl azide at 10 μM Cu (+THPTA)", "value": 1.6, "unit": "fold"}, {"measurement": "signal relative to alkyl azide at 100 μM Cu, corrected value", "setting": "LAP-CFP-TM on HEK cells [4]; picolyl azide at 40 μM Cu, BTTAA", "value": 3.9, "unit": "fold"}, {"measurement": "lipoylation of remaining LAP sites after azide labeling, relative to condition 3 (100%)", "setting": "LAP-CFP-TM on HEK cells [2]", "value": 19, "unit": "%"}, {"measurement": "difference in ligation extent over 8-azidooctanoic acid ligation", "setting": "LAP-CFP-TM on HEK cells [2]; 20 min labeling conditions", "value": "at most 1.5 fold"}, {"measurement": "estimated extent of azide ligation", "setting": "LAP-CFP-TM on HEK cells [2]", "value": 81, "unit": "%"}]}]}
